Experimental data reported in patent US20210386367A1, “DEVICES AND SYSTEMS FOR GASTROINTESTINAL MICROBIOME DETECTION AND MANIPULATION” (Progenity, Inc., priority 2018, published 2021).

Key:
Type in all cases: cell-based
[1] = test system: Enterococcus faecalis clinical isolates; assay: MIC distribution against clinical isolates; conditions: 50 E. faecalis isolates
Source text: (§1) As used herein, “minimum inhibitory concentration” or “MIC” refers to the lowest concentration of an antimicrobial agent, for example, an antimicrobial agent as described herein, required to inhibit the growth of an organism.
(§2) Many susceptibility testing methods are known in the art and can be used as described herein (see, e.g., Jorgensen and Ferraro (2009) Clinical Infectious Diseases 49:1749-1755; and Maurer et al. (2017) Infectious Disease Reports 9:6839; the entire contents of each of the foregoing are incorporated herein by reference). For example, antimicrobial susceptibility can be determined using conventional culture based methods such as the broth or agar dilution test. In these dilution tests, the bacterial isolate of interest is inoculated onto different media that include serial dilutions of an antimicrobial agent, and incubated under appropriate conditions (e.g., overnight at 37° C.) to allow for growth to occur. Following the incubation period, the media is examined to determine bacterial growth. The lowest concentration of antibiotic that prevents growth represents the minimal inhibitory concentration (MIC). Broth dilution tests can be miniaturized and mechanized allowing for reproducibility and high throughput.

[2] = test system: Staphylococcus aureus clinical isolates; assay: MIC distribution against clinical isolates; conditions: 50 S. aureus isolates
Source text: as §1, §2

[3] = test system: Streptococcus pyogenes; assay: Broth microdilution MIC, 19 clinical isolates
Experimental: Minimal inhibitory concentration (MIC) values were determined by broth microdilution or agar dilution in accordance with guidelines from the Clinical and Laboratory Standards Institute (CLSI; (1) “Methods for Dilution Antimicrobial Susceptibility Tests for Bacteria That Grow Aerobically; Approved Standard; 11th ed.” CLSI standard M07-A11, 2018; (2) “Performance Standards for Antimicrobial Susceptibility Testing; Twenty-Eighth Informational Supplement,” CLSI document M100-S28, 2018; and (3) “Methods for Antimicrobial Susceptibility Testing of Anaerobic Bacteria; Approved Standard—Eighth Edition,” CLSI document M11-A8, 2012).
Tested aerobically by broth microdilution: • Escherichia coli, n=50 • Klebsiella spp., n=50 • Pseudomonas aeruginosa, n=50 • Streptococcus spp., n=50 • Staphylococcus aureus, n=50 • Enterococcus faecalis, n=50 • Enterobacter aerogenes, n=50 • Proteus mirabilis, n=50
Broth microdilution testing of aerobic bacteria was conducted in cation-adjusted Mueller Hinton broth (MHBII). For testing streptococci, lysed horse blood (LHB) was added to MHBII broth at a final concentration of 3%. Where LHB was used, it was added after filtering.
Broth microdilution susceptibility testing in 96-well microplates was conducted in accordance with CLSI methods (1) and (2). Automated liquid handlers were used to conduct serial dilutions and liquid transfers, including the Multidrop 384 (Labsystems, Helsinki, Finland), Biomek 2000, and the Biomek FX (Beckman Coulter, Fullerton, Calif.). All wells in columns 2 through 12 of a standard 96-well microdilution plate (Costar 3795) were filled with 150 μL of the appropriate diluent. Then, 300 μL of the test agents were added to the wells of column 1 of the plates at 100× the highest final concentration to be tested. Serial two-fold dilutions were made across the rows through column 11 using the Biomek 2000. The wells of column 12 contained no drug and served as the growth control wells. This plate served as the “mother plate” from which MIC assay plates or “daughter plates” were made.
The daughter plates were loaded with 190 μL per well of the appropriate medium using the Multidrop 384. The daughter plates were created using the Biomek FX which transferred 2 μL of drug solution from each well of a mother plate to each corresponding well of the daughter plate in a single step. A standardized inoculum of each test organism was prepared per CLSI methods (1) to equal a 0.5 McFarland standard, followed by a dilution of 1:20 for aerobes and 1:10 for anaerobes. The plates were then inoculated with 10 μL of the diluted inoculum using the Biomek 2000 from low to high drug concentration, resulting in a final concentration of approximately 5×10^5 CFU/mL per well. An un-inoculated plate was incubated in parallel for each medium for the purpose of assessing solubility of the drug in the test media.
Inoculated plates were stacked 3 or 4 high, covered with a sterile lid on the top plate, placed into boxes with CO2 planchets (streptococci) or plastic bags (all other isolates). Plates were incubated at 35° C. for 16-24 hr in ambient air for aerobes or for 42-48 hr in the anaerobic environment of the Bactron II anaerobe chamber (Sheldon Manufacturing Co.; Cornelius, Oreg.). Following incubation, the microplates were removed from the incubator and viewed from the bottom using a plate viewer. The MIC values were read and recorded as the lowest concentration of drug that inhibited visible growth of the organism as per CLSI methods (1) and (2).

piperacillin/tazobactam [piperacillin-tazobactam]
Cumulative percentage of isolates inhibited at MIC ([1]; MIC 1 μg/mL): 10.0%
Number of test isolates at MIC ([1]; MIC 1 μg/mL): 4
Cumulative percentage of isolates inhibited at MIC ([1]; MIC 2 μg/mL): 32.0%
Number of test isolates at MIC ([1]; MIC 2 μg/mL): 11
Cumulative percentage of isolates inhibited at MIC ([1]; MIC 4 μg/mL): 70.0%
Number of test isolates at MIC ([1]; MIC 4 μg/mL): 19
Cumulative percentage of isolates inhibited at MIC ([1]; MIC 8 μg/mL): 90.0%
Number of test isolates at MIC ([1]; MIC 8 μg/mL): 10
Cumulative percentage of isolates inhibited at MIC ([1]; MIC 16 μg/mL): 98.0%
Number of test isolates at MIC ([1]; MIC 16 μg/mL): 4
Cumulative percentage of isolates inhibited at MIC ([1]; MIC >64 μg/mL): 100.0%
Number of test isolates at MIC ([1]; MIC >64 μg/mL): 1
Cumulative percentage of isolates inhibited at MIC ([1]; MIC […]): 2.0%
Number of test isolates at MIC ([1]; MIC […]): 1
Cumulative percentage of isolates inhibited at MIC ([2]; MIC 0.5 μg/mL): 6.0%
Number of test isolates at MIC ([2]; MIC 0.5 μg/mL): 3
Cumulative percentage of isolates inhibited at MIC ([2]; MIC 1 μg/mL): 24.0%
Number of test isolates at MIC ([2]; MIC 1 μg/mL): 9
Cumulative percentage of isolates inhibited at MIC ([2]; MIC 2 μg/mL): 42.0%
Number of test isolates at MIC ([2]; MIC 2 μg/mL): 9
Cumulative percentage of isolates inhibited at MIC ([2]; MIC 4 μg/mL): 46.0%
Number of test isolates at MIC ([2]; MIC 4 μg/mL): 2
Cumulative percentage of isolates inhibited at MIC ([2]; MIC 8 μg/mL): 52.0%
Number of test isolates at MIC ([2]; MIC 8 μg/mL): 3
Cumulative percentage of isolates inhibited at MIC ([2]; MIC 16 μg/mL): 54.0%
Number of test isolates at MIC ([2]; MIC 16 μg/mL): 1
Cumulative percentage of isolates inhibited at MIC ([2]; MIC 32 μg/mL): 66.0%
Number of test isolates at MIC ([2]; MIC 32 μg/mL): 6
Cumulative percentage of isolates inhibited at MIC ([2]; MIC 64 μg/mL): 92.0%
Number of test isolates at MIC ([2]; MIC 64 μg/mL): 13
Cumulative percentage of isolates inhibited at MIC ([2]; MIC >64 μg/mL): 100.0%
Number of test isolates at MIC ([2]; MIC >64 μg/mL): 4
MIC50 [3]: 0.06 µg/mL
MIC90 [3]: 0.12 µg/mL
MIC range [3]: 0.03 to 0.25 µg/mL
Mode [3]: 0.06 µg/mL
